Our source for the TGI and GI50 values is PubChem BioAssay (NCI).

Test systems include MDA-N; DLD-1 colon; HOP-18 NSCLC; LXFL 529 NSCLC; DMS 114 small cell lung; KM20L2 colon; SNB-78 CNS; M19-MEL melanoma; RXF-631 renal; SN12K1 renal; P388/ADR leukemia; P388 leukemia.
Holding throughout (assay): NCI tumour cell line growth inhibition, 48 h

Molecules are shown by their SMILES. Several values for one entry are separate records, joined by “and”; a condition that tells them apart may be missing. Equal entries are not always repeated.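 Method: 48-hour compound exposure of cells in 96-well plates, five concentrations, linear interpolation of endpoints. GI50 is the concentration that inhibits growth by half. Definition used: TGI = concentration required for complete inhibition of growth.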

Take `Oc1ccc(Cl)cc1C=Nc1cnc2ccccc2c1`: the TGI in the test on MDA-N was more than 100 µM.
As for `CC(=O)[CH-]C(C)=O.CC(=O)[CH-]C(C)=O.[O-]c1ccccc1.[O-]c1ccccc1.[Ti+4]`, the GI50 in the test on DLD-1 colon, with HOP-18 NSCLC, in the test on LXFL 529 NSCLC, in the test with DMS 114 small cell lung and in the test with KM20L2 colon was more than 100 µM in each case. Besides, the TGI in the test with DLD-1 colon, with HOP-18 NSCLC, in the test with LXFL 529 NSCLC, in the test with DMS 114 small cell lung and in the test on KM20L2 colon was more than 100 µM in each case.
On to `Cc1ccccc1NC(=O)CSc1nnc(-c2ccc(N=Cc3ccc(Cl)cc3)cc2)o1`, for which the TGI in the test on HOP-18 NSCLC, with LXFL 529 NSCLC, in the test on DMS 114 small cell lung, in the test on KM20L2 colon, in the test on SNB-78 CNS and in the test with M19-MEL melanoma was more than 100 µM each time.
On to `O=C1NC(O)n2c(=O)[nH]c(=O)n21` (configuration not stated), for which the TGI in the test on DLD-1 colon, in the test on RXF-631 renal, in the test on HOP-18 NSCLC, with LXFL 529 NSCLC, with KM20L2 colon and with SNB-78 CNS was more than 100 µM each time. The TGI with M19-MEL melanoma is more than 100 µM.
Regarding `c1ccc2c(c1)[nH]c1c2nc2ccccn21`, the TGI in the test on DLD-1 colon, with RXF-631 renal, in the test with HOP-18 NSCLC, in the test with LXFL 529 NSCLC, with DMS 114 small cell lung and in the test on KM20L2 colon was more than 100 µM in each case. In addition, the TGI in the test with SNB-78 CNS and in the test on M19-MEL melanoma was more than 100 µM each time.
Regarding `Cc1cc(=O)[nH]c(NNC(C#N)c2cccc([N+](=O)[O-])c2)n1` (configuration not stated), the TGI with DLD-1 colon, with HOP-18 NSCLC, in the test with LXFL 529 NSCLC, in the test on DMS 114 small cell lung, in the test on KM20L2 colon and in the test on SNB-78 CNS was more than 100 µM throughout. The molecule further yielded a TGI with M19-MEL melanoma of more than 100 µM.
For the molecule `[N-]=[N+]=CC(=O)CCC(N)C(=O)O` (configuration not stated), the GI50 in the test on MDA-N is 2.26 µM. Moreover, the TGI in the test on MDA-N is more than 250 µM; in the test with DLD-1 colon it was more than 170 µM; with SN12K1 renal it was 141 µM; with HOP-18 NSCLC it was more than 250 µM; in the test with DMS 114 small cell lung, 95.5 µM; with KM20L2 colon, more than 250 µM. Moreover, the TGI was 30.4 µM with P388/ADR leukemia, more than 74.4 µM in the test on SNB-78 CNS, 21.9 µM in the test with P388 leukemia and more than 138 µM in the test with M19-MEL melanoma.
Molecule `C=C(Br)CN=CN(C)C` showed a TGI in the test with MDA-N of more than 100 µM.
Regarding `CC(C)(C)C#COC(=O)c1ccccc1`, the TGI in the test with DLD-1 colon, in the test on LXFL 529 NSCLC, in the test on DMS 114 small cell lung, with KM20L2 colon, in the test on SNB-78 CNS and in the test on M19-MEL melanoma was more than 100 µM in each case.
Regarding `C[C@@H]1C[C@@H]([C@H](O)CC2CC(=O)NC(=O)C2)C(=O)[C@@H](C)C1`, the TGI with DLD-1 colon worked out at 1.98 µM; with RXF-631 renal it was 0.608 µM; in the test with LXFL 529 NSCLC it was 0.623 µM; in the test on DMS 114 small cell lung it was 1.79 µM; with KM20L2 colon it was 21.5 µM; with SNB-78 CNS, 11.1 µM. Besides, the TGI with M19-MEL melanoma stood at 3.48 µM.
The molecule `N=C1CCCC1C(=S)SCCC(N)=O` (configuration not stated) returned a TGI in the test on MDA-N of more than 100 µM.
In the case of `O=c1c2cccnc2ncn1CCCN1CCCCC1`, the TGI in the test on DLD-1 colon, in the test on DMS 114 small cell lung, with SNB-78 CNS and in the test on M19-MEL melanoma was more than 100 µM throughout.
With `Cc1nc2c(Br)cc(Br)cc2c(=O)n1-c1ccccc1NC1OC(CO)C(O)C(O)C1O` (configuration not stated), the TGI in the test on MDA-N was more than 100 µM.
Take `CCOc1ccc(NC(=O)/C(CC(=O)c2c[n+](=O)c3ccccc3n2[O-])=N\OCCCc2ccccc2)cc1`: the TGI with DLD-1 colon, in the test on RXF-631 renal, in the test with LXFL 529 NSCLC, in the test with DMS 114 small cell lung, with KM20L2 colon and with SNB-78 CNS was more than 100 µM in each case. In addition, the TGI in the test with M19-MEL melanoma was more than 100 µM.
Regarding `O=C1CC23CCCCCCCCCCC2(C1)CC(=O)C3` (configuration not stated), the TGI is more than 100 µM with DLD-1 colon; 92.7 µM with HOP-18 NSCLC; more than 100 µM in the test on LXFL 529 NSCLC; 77.6 µM in the test with DMS 114 small cell lung; 48.4 µM with M19-MEL melanoma.
In the case of `CCOC(=O)c1cc(-c2ccc(OC)cc2)c([N+](=O)[O-])[nH]1`, the TGI in the test with MDA-N is more than 3.16 µM.
Molecule `NCCO/C=C/C(N)C(=O)O` (configuration not stated) registered a TGI in the test on MDA-N of more than 100 µM.
In turn, `N#Cc1nc(CCc2nc(C#N)c(N)o2)oc1N` returned a TGI in the test with MDA-N of more than 10 µM.
Turning to `O=C(Nc1ccc(Cl)cc1C(F)(F)F)C(=O)Nn1c(=S)[nH]c2ccccc2c1=O`, the TGI in the test on MDA-N is more than 100 µM.
In turn, `C=C(C)C1CC(=O)C(C)=C(O)C1` (configuration not stated) had a TGI with MDA-N of more than 100 µM.
As to `O=C1c2ccccc2-c2nc3ccncc3n21`, the TGI in the test on MDA-N was more than 100 µM.
Consider `COC1(OC)C2(Cl)C3=CCCC=C3C1(Cl)C(Cl)=C2Cl`, for which the TGI is more than 100 µM in the test with DLD-1 colon; 30.3 µM with RXF-631 renal; more than 100 µM in the test on LXFL 529 NSCLC; 49.9 µM in the test on DMS 114 small cell lung; 60.4 µM in the test with KM20L2 colon; more than 100 µM in the test on SNB-78 CNS. In addition, the TGI in the test with M19-MEL melanoma worked out at 47.4 µM.
As for `COc1c2ccoc2nc2c(OC)c(OCC(O)C(C)(C)O)ccc12` (configuration not stated), the TGI with MDA-N is more than 100 µM.
On to `COc1cc(C)c2c(c1)CN1CN2Cc2cc(OC)cc(C)c21`, for which the TGI was more than 100 µM with DLD-1 colon; more than 100 µM with LXFL 529 NSCLC; 75.1 µM with DMS 114 small cell lung; more than 100 µM with SNB-78 CNS; more than 100 µM in the test on M19-MEL melanoma.
In the case of `Cc1cccc(C)c1NC(=O)C(=O)Cc1nc2ccccc2s1`, the TGI in the test on DLD-1 colon, in the test with LXFL 529 NSCLC, in the test with DMS 114 small cell lung, in the test with KM20L2 colon, in the test on SNB-78 CNS and in the test with M19-MEL melanoma was more than 100 µM each time.
In the case of `N#C/C(=C\c1ccc2[nH]ccc2c1)C(=O)NCCCCNC(=O)/C(C#N)=C/c1ccc2[nH]ccc2c1`, the TGI in the test on MDA-N is more than 10 µM; in the test with DLD-1 colon, more than 100 µM; in the test on LXFL 529 NSCLC, more than 100 µM; in the test with DMS 114 small cell lung, more than 100 µM; in the test on KM20L2 colon it was more than 100 µM; in the test on SNB-78 CNS, more than 100 µM. The TGI with M19-MEL melanoma was more than 100 µM.
On to `Cn1c(=O)oc2cc(C3CCC(=O)N3Cc3csc(-c4ccccc4)n3)ccc21` (configuration not stated), for which the TGI in the test on DLD-1 colon, in the test with HOP-18 NSCLC, in the test on LXFL 529 NSCLC, in the test on DMS 114 small cell lung, in the test with KM20L2 colon and in the test on SNB-78 CNS was more than 100 µM in each case. In the test with M19-MEL melanoma, this molecule showed a TGI of more than 100 µM.
As to `Cc1cc(Cl)ccc1NC(=O)CCCC(=O)C1C/C(=N/O)CC/C1=N\O` (configuration not stated), the TGI in the test with DLD-1 colon, with RXF-631 renal, in the test with HOP-18 NSCLC, in the test with LXFL 529 NSCLC, in the test with DMS 114 small cell lung and in the test on KM20L2 colon was more than 100 µM each time. For the same molecule, the TGI in the test on SNB-78 CNS and in the test with M19-MEL melanoma was more than 100 µM throughout.
`O=c1c(Cc2ccccc2)c(O)cc2n1CCC2`: the TGI with DLD-1 colon, with RXF-631 renal, with HOP-18 NSCLC, in the test on LXFL 529 NSCLC, in the test with DMS 114 small cell lung and in the test with KM20L2 colon was more than 100 µM each time. Further, the TGI with SNB-78 CNS and in the test with M19-MEL melanoma was more than 100 µM in each case.
`O=c1c(-c2ccc3c(c2)OCO3)coc2c3c(ccc12)OCO3` displayed a TGI in the test with MDA-N of more than 100 µM.
With `CC(C)Cc1cnc(CC(C)C)c(=O)[nH]1`, the TGI with MDA-N is more than 100 µM.
Same read-out and setting: the result for `CCOc1c(Br)cc(Br)cc1C=C(C#N)C#N` reads more than 10 µM; that for `COc1cccc2c1C(=O)c1c(O)c3c(c(O)c1C2=O)C[C@@](O)(C(C)=O)CC3OC1CC(OC2CC(N)C(O)C(C)O2)C(O)C(C)O1` (some centres not stated), more than 100 µM.
Regarding `CN1CCCC2[C@@H]3CCC4c5nonc5CC[C@]4(C)C3CC[C@@]21C` (some centres not stated), the TGI in the test with DLD-1 colon, in the test with HOP-18 NSCLC, in the test on LXFL 529 NSCLC, with DMS 114 small cell lung, in the test on KM20L2 colon and with SNB-78 CNS was more than 100 µM each time. Moreover, the TGI in the test with M19-MEL melanoma was more than 100 µM.
For the molecule `O=c1[nH]ccc(CNC23CC4CC(CC(C4)C2)C3)c1O`, the TGI with DLD-1 colon, with HOP-18 NSCLC, with LXFL 529 NSCLC, in the test with KM20L2 colon, with SNB-78 CNS and in the test with M19-MEL melanoma was more than 100 µM in each case.
`Clc1ccccc1C(Nc1cnccn1)Nc1cnccn1` returned a TGI with MDA-N of more than 100 µM.
`Cc1cc2c(c(C(=O)O)c1C)-c1cccc(Cl)c1C2=O`: the TGI with DLD-1 colon, with LXFL 529 NSCLC, with DMS 114 small cell lung, in the test on KM20L2 colon, in the test on SNB-78 CNS and in the test with M19-MEL melanoma was more than 100 µM throughout.
For the molecule `OCC(O)C(O)C(O)C(/C=N\Nc1ncnc2c(Br)cc(Br)cc12)=N/Nc1ncnc2c(Br)cc(Br)cc12` (configuration not stated), the TGI in the test on MDA-N is 23.2 µM and > 100 µM.
